The target in experiment [1] is T1, GDP-loaded kRas (1-169) G12C, C51S, C80L, C118S (Homo sapiens, UniProt P01116, C118S/C51S/C80L/G12C).
T1 construct: GDP-loaded kRas (1-169) G12C, C51S, C80L, C118S
Kind of experiment: Mass Spectrometry Reactivity Assay (MSRA), covalent adduct with kRas G12C. The class given is binding. The note with it: 0.5 h at room temperature; 5 μM KRas protein; typical final concentration of the compounds 10 μM. Here is the method: Mass Spectrometry Reactivity Assay (MSRA)
Compounds presented in the present invention covalently bind to kRas G12C using MSRA to detect a covalent adduct of the exemplary compound and kRas G12C. GDP-loaded kRas (1-169) G12C, C51S, C80L, C118S were diluted in the protein assay buffer 25 mM Hepes pH7.5, 200 mM NaCl, 5% glycerol to concentration of 5 μM and 20 μl of protein was transferred into 96-well plate. […] See K-Ras(G12C) inhibitors allosterically control GTP affinity and effector interactions; Ostrem J M, Peters U, Sos M L, Wells J A, Shokat K M; Nature. 2013, Nov. 28; 503(7477):548-51.
Exemplary compounds dissolved in DMSO were diluted 100-fold into solution containing 20 μl of 5 μM KRas protein in the 96-well plate to initiate the reaction. Mosquito (TPP Lab tech) liquid handling robot was used to add compounds to protein solution. Typical final concentration of the compounds was 10 μM. The plates were placed on a shaker for 1 min at RT, sealed and incubated at room temperature for specified time period. 5 μl of reaction mix was added to 10 μl of 0.2% formic acid stop solution and mixed well. Typical end points were 30, 120, 600 and 1440 min.
Data were collected using Waters Acquity H-class UPLC system/Xevo G2-XS TOF mass spectrometer. The protein was injected in their liquid phase onto a Bruker Microtrap protein column TR1/15109/03. The following buffers were used to set LC gradient: Buffer A: 0.2% formic acid H20; B: 0.2% formic acid CAN. The protein was eluted from the column using the following LC Gradient: 0-0.4 min, 10% B to 30% B; 0.4 min-2.4 min, to 90% B, 2.5 min, 10% B, 3 min, 10% B. Initial data analysis was performed using MaxEnt software right after data acquisition.
The standard auto processing function was used to define percentage of unmodified and modified kRas protein using MexEnt software right after data acquisition. The highest peak was defined as 100% while smaller peak as assigned the number defined by autoprocessing function. The percent of modification corresponding to modified with exemplary compound and unmodified KRas GDP-loaded kRas (1-169) G12C, C51S, C80L, C118S were exported to Xcel data analysis software.
The percent of modified protein at the defined concentration of exemplary compound was calculated using the following formula: % mod=Num of modified peak/Sum of modified+unmodified.

The target of a further experiment is T2, KRAS G12C in H358 cells (Homo sapiens, UniProt P01116, G12C).
T2 construct: endogenous in cells; host or cells: H358
Kind of experiment: H358 Cell Activity Assay (Raf-1 RBD capture of active Ras, MSD). Format: cell-based. The conditions noted are these: 6 hours treatment. Here is the method:
(§1) Compounds presented in the present invention lead to the accumulation of the GDP bound Ras upon treatment of human cancer cell line.
(§2) The accumulation of the GDP-bound KRAS G12C in cellular environment was measured based on the principle that KRAS G12C only binds to its downstream kinase; Raf-1 (MAP Kinase Kinase Kinase), when in its active-GTP bound state. In this state, Ras binded to a domain of Raf-1 kinase referred to as the Ras Binding Domain (RBD).
(§3) H358 cells were grown in RPMI 1640 medium (Gibco 11875) supplemented with 10% fetal bovine serum and 1% penicillin/streptomycin. Cells were seeded in 96-well tissue culture plates at a density of 40,000 cells/well and allowed to attach for 16-24 hours. Test compounds were prepared as a 10 mM stock in DMSO and serially diluted in 100% DMSO using a 3-fold dilution scheme. An intermediate 5× concentrated plate in complete growth medium was made and 25 μl/well was added to the 100 μl of cells for a final concentration of 0.1% DMSO. Each concentration of exemplary compound was tested in duplicate. The negative control wells were cells with control inhibitor at 10 μM, and the positive control wells were cells without drugs, DMSO only. Plates were incubated for 6 hours at 37° C., 5% CO2. Following treatment, cells were washed 3× with ice-cold PBS and 100 μl/well ice-cold 1× Assay/Lysis. Buffer with protease inhibitors was added (25 mM HEPES, pH 7.5, 150 mM NaCl, 1% NP-40, 10 mM MgCl2, 1 mM EDTA, 2% Glycerol). Following lysis samples were frozen at −80° C.
(§4) Raf-1 RBD (LJIC-1988A1) was diluted to 100 ng/well in PBS and 5 μl/well was spot coated onto MSD high bind SECTOR plates (L15XB). Plates were incubated at room temperature for 1 hour on an orbital shaker. Plates were washed with PBS/0.05% Tween-20 and 50 μl/well of thawed lysate samples were added, followed by 50 μl of 1% MSD Blocker A in PBS/0.05% Tween-20 (R93BA). Plates were incubated for 1 hour on an orbital shaker and washed with PBS/0.05% Tween-20. 25 μl/well of Anti-pan-Ras Antibody (Cell Biolabs 244003) diluted 1:3000 was added in 1% MSD Blocker A solution and plates were incubated for 1 hour on an orbital shaker and washed with PBS/0.05% Tween-20. SULFO-TAG goat anti-mouse secondary antibody (MSD R32AC) was diluted 1:500 in MSD Blocker A solution and added at 25 μL/well. Plates were incubated for 1 hour on an orbital shaker and washed with PBS/0.05% Tween-20. 150 μl/well of Read Buffer T (MSD R92TC) diluted 1:3 in H2O was added and plates were read on a Meso Scale Discovery Sector Imager S600.
(§5) KRAS signal was normalized to maximum inhibition and DMSO control values, and IC50 values were generated using a 4 parameter fit of the dose response curve. The decrease in IC50 reflects that the exemplary compound lead to a higher level of accumulation of GDP-bound KRAS G12C than another exemplary compounds at specific timepoint of treatment of cancer cell line.

The target of experiment [2] is T3, KRAS G12C in MiaPaCa2 cells (Homo sapiens, UniProt P01116, G12C).
T3 construct: endogenous in cells; host or cells: MiaPaCa2
Kind of experiment: MiaPaCa2 Cell Activity Assay (Raf-1 RBD capture of active Ras, MSD). The class given is cell-based. The conditions noted are these: MIAPaCa-2 cells, 6 hours treatment; assay limit is 30.0 μM. How it is done: MiaPaCa2 Cell Activity Assay
as §1, §2
as §3, with “MiaPaCa2” for “H358”, “DMEM” for “RPMI 1640”, “11995)” for “11875)”
as §4, §5

`C=CC(=O)N1CCN(c2nc(OCCCN(C)C)nc3c2C[C@@H](C)[C@H](c2c(Cl)c(C)cc4[nH]ncc24)C3)CC1` (relative stereo) [Example C7, 1-(4-{(6R,7R)-rel-7-(5-chloro-6-methyl-1H-indazol-4-yl)-2-[3-(dimethylamino)propoxy]-6-methyl-5,6,7,8-tetrahydroquinazolin-4-yl}piperazin-1-yl)prop-2-en-1-one]: in experiment [1], the “% Modification (0.5 h)” value was determined as 73%. The half-inhibitory concentration (IC50) (commonly the midpoint of a concentration-inhibition curve) was 0.106 µM on KRAS G12C in H358 cells and 0.088 µM in experiment [2].

Regarding `C=CC(=O)N1CCN(c2nc(OCCN(C)C)nc3c2C[C@@H](C)[C@H](c2c(Cl)c(C)cc4[nH]ncc24)C3)CC1` (relative stereo) [Example C8, 1-(4-{(6R,7R)-rel-7-(5-chloro-6-methyl-1H-indazol-4-yl)-2-[2-(dimethylamino)ethoxy]-6-methyl-5,6,7,8-tetrahydroquinazolin-4-yl}piperazin-1-yl)prop-2-en-1-one], the “% Modification (0.5 h)” value in experiment [1] is on record as 65%. For the same compound, the figures for the IC50 (against KRAS G12C in H358 cells; in experiment [2]) were 0.116 µM and 0.14 µM, respectively.

For `C=CC(=O)N1CCN(c2nc(OC[C@H]3CCCN3C)nc3c2C[C@@H](C)[C@H](c2c(C)ccc4[nH]ncc24)C3)CC1` (relative stereo) [Example C10, 1-{4-[(6R,7R)-rel-6-methyl-7-(5-methyl-1H-indazol-4-yl)-2-{[(2R)-1-methylpyrrolidin-2-yl]methoxy}-5,6,7,8-tetrahydroquinazolin-4-yl]piperazin-1-yl}prop-2-en-1-one], in experiment [1], the “% Modification (0.5 h)” value was determined as 80%. For the same compound, the IC50 at KRAS G12C in H358 cells amounted to 0.129 µM; in experiment [2], 0.236 µM.

For the compound `C=CC(=O)N1CCN(c2nc(N3CC(N(C)C)C3)nc3c2C[C@@H](C)[C@H](c2c(C)ccc4[nH]ncc24)C3)CC1` (relative stereo) [Example F1, 1-{4-[(6R,7R)-rel-2-[3-(dimethylamino)azetidin-1-yl]-6-methyl-7-(5-methyl-1H-indazol-4-yl)-5,6,7,8-tetrahydroquinazolin-4-yl]piperazin-1-yl}prop-2-en-1-one], the “% Modification (0.5 h)” value in experiment [1] worked out at 59%. The IC50 against KRAS G12C in H358 cells stood at 0.36 µM; in experiment [2], 0.429 µM.

In the case of `C=CC(=O)N1CCN(c2nc(N3CC(N(C)C)C3)nc3c2C[C@@H](C)[C@H](c2c(Cl)ccc4[nH]ncc24)C3)CC1` (relative stereo) [Example F5, 1-(4-{(6R,7R)-rel-7-(5-chloro-1H-indazol-4-yl)-2-[3-(dimethylamino)azetidin-1-yl]-6-methyl-5,6,7,8-tetrahydroquinazolin-4-yl}piperazin-1-yl)prop-2-en-1-one], in experiment [1], the “% Modification (0.5 h)” value came out at 72%. Further, the IC50 turned out to be 0.145 µM at KRAS G12C in H358 cells and 0.154 µM in experiment [2].

Consider `C=CC(=O)N1CCN(c2nc(N3CC(N(C)C)C3)nc3c2C[C@@H](C)[C@H](c2c(Cl)c(C)cc4[nH]ncc24)C3)CC1` (relative stereo) [Example F6, 1-(4-{(6R,7R)-rel-7-(5-chloro-6-methyl-1H-indazol-4-yl)-2-[3-(dimethylamino)azetidin-1-yl]-6-methyl-5,6,7,8-tetrahydroquinazolin-4-yl}piperazin-1-yl)prop-2-en-1-one], for which the “% Modification (0.5 h)” value in experiment [1] worked out at 83%. Moreover, the IC50 stood at 0.116 µM against KRAS G12C in H358 cells and 0.126 µM in experiment [2].

As to `C=CC(=O)N1CCN(c2nc(N3CC(N(C)C)C3)nc3c2C[C@@H](C)[C@H](c2c(C)ccc4[nH]ncc24)C3)CC1` (single isomer, unassigned) [Example F2], the “% Modification (0.5 h)” value in experiment [1] is reported as 79%. Moreover, the IC50 against KRAS G12C in H358 cells was found to be 0.277 µM; in experiment [2], 0.285 µM.

For the compound `C=CC(=O)N1CCN(c2nc(N3CC(N(C)C)C3)nc3c2C[C@@H](C)[C@H](c2c(Cl)ccc4[nH]ncc24)C3)CC1` (single isomer, unassigned) [Example F10], the IC50 was determined as 0.395 µM against KRAS G12C in H358 cells and 0.169 µM in experiment [2].

As for `C=CC(=O)N1CCN(c2ncnc3c2C[C@@H](C)[C@H](c2c(C)ccc4[nH]ncc24)C3)CC1` [Example A5, 1-{4-[(6R,7R)-6-methyl-7-(5-methyl-1H-indazol-4-yl)-5,6,7,8-tetrahydroquinazolin-4-yl]piperazin-1-yl}prop-2-en-1-one], in experiment [1], the “% Modification (0.5 h)” value was 77%. The IC50 was found to be 0.78 µM on KRAS G12C in H358 cells and 0.64 µM in experiment [2].

As for `C=CC(=O)N1CCN(c2nc(OCCCN(C)C)nc3c2C[C@@H](C)[C@H](c2c(C)ccc4[nH]ncc24)C3)CC1` [Example C5, 1-{4-[(6R,7R)-2-[3-(dimethylamino)propoxy]-6-methyl-7-(5-methyl-1H-indazol-4-yl)-5,6,7,8-tetrahydroquinazolin-4-yl]piperazin-1-yl}prop-2-en-1-one], in experiment [1], the “% Modification (0.5 h)” value is given as 74%. The IC50 on KRAS G12C in H358 cells came to 0.468 µM; in experiment [2], 0.214 µM.

As to `C=CC(=O)N1CCN(c2nc(N3CC(N(C)C)C3)nc3c2C[C@@H](C)[C@H](c2c(C)c(Cl)cc4[nH]ncc24)C3)C[C@H]1C` [Example F13, 1-[(2R)-4-{(6R,7R)-7-(6-chloro-5-methyl-1H-indazol-4-yl)-2-[3-(dimethylamino)azetidin-1-yl]-6-methyl-5,6,7,8-tetrahydroquinazolin-4-yl}-2-methylpiperazin-1-yl]prop-2-en-1-one], in experiment [1], the “% Modification (0.5 h)” value worked out at 79%. The IC50 in experiment [2] is 0.113 µM.

For the origin of these results see patent publication US10590115B2, “Tetrahydroquinazoline derivatives useful as anticancer agents” (PFIZER INC., priority 2018, dated 2020).
